# Source: US7928135B2, “Benzene, pyridine, and pyridazine derivatives” (Serenex, Inc., priority 2005, dated 2011)
# Key:
# [1] = tested on: PC-3 cell proliferation; experiment: Cell proliferation assay (WST-1), PC-3; assay type: cell-based; conditions: Homo sapiens; PC-3 cells, WST-1 readout; read-out: inhibitory activity against PC-3 cell proliferation (IC50 range)
# Experimental: A panel of cancer cell lines was obtained from the DCTP Tumor Repository, National Cancer Institute (Frederick, Md.) or ATCC (Rockville, Md.). Cell cultures were maintained in Hyclone RPMI 1640 medium (Logan, Utah) supplemented with 10% fetal bovine serum and 20 mM HEPES buffer, final pH 7.2, at 37° C. with a 5% CO2 atmosphere. Cultures were maintained at sub-confluent densities. Human umbilical vein endothelial cells (HUVEC) were purchased from Clonetics, a division of Cambrex (Walkersville, Md.). Cultures were established from cryopreserved stocks using Clonetics EGM-2 medium supplemented with 20 mM HEPES, final pH 7.2, at 37° C. with a 5% CO2 atmosphere.
# For proliferation assays, cells were seeded with the appropriate medium into 96 well plates at 1,000-2,500 cells per well, depending on the cell line, and were incubated overnight. The following day, test compound, DMSO solution (negative control), or Actinomycin D (positive control) was added to the appropriate wells as 10× concentrated stocks prepared in phosphate buffered saline. The cell plates were then incubated for an additional 2-5 days, depending on the cell line, to allow proliferation to occur. To measure cell density, 50 μL of WST-1 solution (Roche Applied Science, Ind.) diluted 1:5 in phosphate buffered saline was added to each well, and the cells incubated for an additional 1-5 hrs., again depending on the cell line. Optical density was determined for each well at […] using a Tecan GeniosPro plate reader (RTP, NC). The percentage of cell growth was determined by comparing the cell growth in the presence of test compounds to the cells treated with DMSO vehicle (control, 100% growth) and cells treated with Actinomycin D (10 μM, 0% growth). […]
# [2] = tested on: HSP-90 (heat shock protein 90); experiment: Determination of affinity for HSP-90 (elution from purine affinity column, SDS-PAGE densitometry); assay type: binding; parameters: key: +++: very high; ++: high; +: moderate; conditions: elution of HSP-90 from purine affinity column with 20, 100 and 500 μM test compound
# Experimental: Affinity of test compounds for HSP-90 was determined as follows: Protein mixtures obtained from a variety of organ tissues (for example: spleen, liver and lung) were reversibly bound to a purine affinity column to capture purine-binding proteins, especially HSP-90. The purine affinity column was washed several times, and then eluted with 20 μM, 100 μM, and 500 μM of test compound. Compounds of Formula I elute HP-90 in a dose-dependent manner vs. a control elution using dimethylsulfoxide. The elution profile of Formula I compounds was determined by 1-dimensional SDS polyacrylamide gel electrophoresis. Gels were stained with a fluorescent stain such as sypro ruby (a highly sensitive fluorescent protein stain that can readily detect less than 1 fmol of total protein, i.e., less than 0.04 ng for a 40 kDa protein) or silver nitrate. The gels were imaged using a standard flat bed gel imager and the amount of protein estimated by densitometry. The percent of HSP-90 protein eluted from the column at each concentration was determined and IC50 values were calculated from these estimates. The identity of a band containing HSP-90 was determined by protein sequencing using mass spectroscopy.
# Compounds of the invention are inhibitors of HSP-90 (heat shock protein 90). Several exemplary compounds useful in the methods of the invention are listed below.
SMILES,IC50 [1] [µM],relative binding affinity to HSP-90 [2]
"Cc1cn(-c2ccc(C(N)=O)c(Sc3ccncc3)c2)c2c1C(=O)CC(C)(C)C2 [Compound 105, 2-(pyridin-4-ylthio)-4-(3,6,6-trimethyl-4-oxo-4,5,6,7-tetrahydro-1H-indol-1-yl)benzamide]",5 to 50,++
"COc1cc(Nc2cc(-n3c(C)cc4c3CC(C)(C)CC4=O)ccc2C(N)=O)cc(OC)c1OC [Compound 76, 2-[(3,4,5-trimethoxyphenyl)amino]-4-(2,6,6-trimethyl-4-oxo-4,5,6,7-tetrahydro-1H-indol-1-yl)benzamide]",0.5 to 5,+++
"Cc1nn(-c2ccc(C(N)=O)c(NC3CCC3)c2)c2c1C(=O)CC(C)(C)C2 [Compound 117, 2-(cyclobutylamino)-4-(3,6,6-trimethyl-4-oxo-4,5,6,7-tetrahydro-1H-indazol-1-yl)benzamide]",< 0.5,+++
"CCCCSc1cc(-n2nc(C)c3c2CC(C)(C)CC3=O)ccc1C(N)=O [Compound 103, 2-(butylthio)-4-(3,6,6-trimethyl-4-oxo-4,5,6,7-tetrahydro-1H-indazol-1-yl)benzamide]",0.5 to 5,++
"CC(=O)Nc1cc(-n2cc(C)c3c2CC(C)(C)CC3=O)ccc1C(N)=O [Compound 98, 2-(acetylamino)-4-(3,6,6-trimethyl-4-oxo-4,5,6,7-tetrahydro-1H-indol-1-yl)benzamide]",< 0.5,+++
"Cc1cc2c(n1-c1ccc(C(N)=O)c(-c3ccncc3)c1)CC(C)(C)CC2=O [Compound 77, 2-pyridin-4-yl-4-(2,6,6-trimethyl-4-oxo-4,5,6,7-tetrahydro-1H-indol-1-yl)benzamide]",5 to 50,++
"CC1(C)CC(=O)c2c(C(F)(F)F)nn(-c3ccc(C(N)=O)c(NCCNS(C)(=O)=O)c3)c2C1 [Compound 133, 4-[6,6-dimethyl-4-oxo-3-(trifluoromethyl)-4,5,6,7-tetrahydro-1H-indazol-1-yl]-2-({2-[(methylsulfonyl)amino]ethyl}amino)benzamide]",5 to 50,++
"Cc1cn(-c2ccc(C(N)=O)c(NC(N)=O)c2)c2c1C(=O)CC(C)(C)C2 [Compound 55, 1-(2-carbamoyl-5-(3,6,6-trimethyl-4-oxo-4,5,6,7-tetrahydroindol-1-yl)phenyl)urea]",0.5 to 5,++
"Cc1cc2c(n1-c1ccc(C(N)=O)c(NN3CCOCC3)c1)CC(C)(C)CC2=O [Compound 94, 2-(morpholin-4-ylamino)-4-(2,6,6-trimethyl-4-oxo-4,5,6,7-tetrahydro-1H-indol-1-yl)benzamide]",5 to 50,++
"Cc1cn(-c2ccc(C(N)=O)c(N3CCN(C)CC3)c2)c2c1C(=O)CC(C)(C)C2 [Compound 99, 2-(4-methylpiperazin-1-yl)-4-(3,6,6-trimethyl-4-oxo-4,5,6,7-tetrahydro-1H-indol-1-yl)benzamide]",5 to 50,++
"CCc1cc(-n2nc(C)c3c2CC(C)(C)CC3=O)ccc1C(N)=O [Compound 102, 2-ethyl-4-(3,6,6-trimethyl-4-oxo-4,5,6,7-tetrahydro-1H-indazol-1-yl)benzamide]",5 to 50,++
"Cc1cc2c(n1-c1ccc(C(N)=O)cc1-c1ccsc1)CC(C)(C)CC2=O [Compound 70, 3-(3-thienyl)-4-(2,6,6-trimethyl-4-oxo-4,5,6,7-tetrahydro-1H-indol-1-yl)benzamide]",5 to 50,+
